# Measured values taken from EP0112332B1, “VITAMIN D GLYCOSIDES” (THE GENERAL HOSPITAL CORPORATION, priority 1982, dated 1984).
# Experiments:
# [1] = in vivo, dosed parenterally and daily; cited from earlier work
# [2] = tested on: Intestinal calcium transport; experiment: Intestinal calcium transport by the everted gut sac technique after oral dosing of vitamin D deficient rats; type: in vivo; settings: for I/O (inside Ca⁴⁵/outside Ca⁴⁵) ± S.D.: 24 hours later, vehicle 1.6 ± 0.3; for stimulating intestinal calcium absorption (result in words): summary of the table data, oral dosing of rats
# Protocol: (§1) The vitamin D₃, 3β-glucoside vitamin D₃, 3α-glucoside and the vitamin D₃, 3β glucoside acetate were tested for biological activity. Male weanling rats from Holtzmann Company, Madison, Wisconsin, U.S.A., were fed a vitamin D deficient diet that was adequate in phosphorus and low in calcium (0.02%) for 3-1/2 weeks. Groups of five animals received orally either 4 µg, 1 µg, 0.5 µg, 0.25 µg of Vitamin D₃ -3β- glucoside, 1 µg Vitamin D₃ -3α- glucoside or 2 µg Vitamin D₃ -3β- glucoside acetate in 50 µl of 95% ethanol or vehicle alone. 24 hours later the animals were sacrificed and the small intestine and blood were collected. Intestinal calcium transport studies were performed by the everted gut sac technique, and blood was used for serum calcium determinations.
# [3] = Serum calcium determination (bone calcium mobilization) after oral dosing of vitamin D deficient rats on low calcium diet; type: in vivo
# Protocol: as §1
Compound,times more potent than D₃ [1],times more potent than the monohydroxy form of the vitamin [1],I/O (inside Ca⁴⁵/outside Ca⁴⁵) ± S.D. ([2]; 2 µg orally in 50 µl of 95% ethanol),stimulating intestinal calcium absorption (result in words) [2],I/O (inside Ca⁴⁵/outside Ca⁴⁵) ± S.D. ([2]; 0.25 µg orally in 50 µl of 95% ethanol),I/O (inside Ca⁴⁵/outside Ca⁴⁵) ± S.D. ([2]; 0.5 µg orally in 50 µl of 95% ethanol),I/O (inside Ca⁴⁵/outside Ca⁴⁵) ± S.D. ([2]; 1 µg orally in 50 µl of 95% ethanol),"I/O (inside Ca⁴⁵/outside Ca⁴⁵) ± S.D. ([2]; 4 µg orally in 50 µl of 95% ethanol, male weanling rats, vitamin D deficient low calcium diet)","Serum Calcium ± S.D. ([3]; 4 µg orally in 50 µl of 95% ethanol, 24 hours later, vehicle 4.3 ± 0.2)","stimulating bone calcium mobilization (result in words) ([3]; summary of the table data, oral dosing of rats)"
"C=C1/C(=C\C=C2/CCC[C@]3(C)[C@@H]([C@H](C)CCCC(C)(C)O)CC[C@@H]23)C[C@@H](O)C[C@@H]1O [1α, 25-(OH)₂D₃]",5-10 times,2-5 times,,,,,,,,
"C=C1CC[C@H](O[C@@H]2O[C@H](COC(C)=O)[C@@H](OC(C)=O)[C@H](OC(C)=O)[C@H]2OC(C)=O)C/C1=C/C=C1\CCC[C@]2(C)[C@@H]([C@H](C)CCCC(C)C)CC[C@@H]12 [Vitamin D₃ 3β- glucoside acetate, 9,10-secocholesta-5,7,10(19)-trien-3β-yl-2',3',4',6'-tetra-O-acetyl -β-D-glucopyranoside]",,,1.7 ± 0.2,appears inactive,,,,,,
"C=C1CC[C@H](O[C@@H]2O[C@H](CO)[C@@H](O)[C@H](O)[C@H]2O)C/C1=C/C=C1\CCC[C@]2(C)[C@@H]([C@H](C)CCCC(C)C)CC[C@@H]12 [Vitamin D₃ 3β- glucoside, 9,10-secocholesta-5,7,10(19)triene-3β-yl -β-D-glucopyranoside]",,,,capable of stimulating intestinal calcium absorption,2.0 ± 0.2,2.5 ± 0.2,3.6 ± 0.3,3.9 ± 0.2,5.3 ± 0.2,capable of stimulating
